Measurements from article PMC9871250, “Identification of an indole biodegradation gene cluster from Providencia rettgeri and its contribution in selectively biosynthesizing Tyrian purple” (Frontiers in Bioengineering and Biotechnology, 2023).

Biological target: T1, GS-D (Providencia rettgeri, UniProt A0ACG1W3V9)
T1 construct: gene KAH49_07450; full length, N-terminal 6xHis, pET28a in E. coli BL21(DE3), Ni-NTA
T1 sequence (A0ACG1W3V9 1-176): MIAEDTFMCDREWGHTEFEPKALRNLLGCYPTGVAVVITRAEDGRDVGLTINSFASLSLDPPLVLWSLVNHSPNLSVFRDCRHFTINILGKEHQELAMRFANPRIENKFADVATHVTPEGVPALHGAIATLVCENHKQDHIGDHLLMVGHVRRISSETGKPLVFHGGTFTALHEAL
Assay: NADH oxidation, absorbance at […] nm
Format: biochemical
Settings: pH 8.0, 30 °C, 250 μM NADH, 100 μM FAD

Q: For NC(=O)C1=CN([C@@H]2O[C@H](COP(=O)(O)OP(=O)(O)OC[C@H]3O[C@@H](n4cnc5c(N)ncnc54)[C@H](O)[C@@H]3O)[C@@H](O)[C@H]2O)C=CC1 [NADH], which “NADH oxidation, absorbance at 340 nm” value is on record?
A: oxidation of NADH demonstrated the flavin reductase activity of the GS-D reductase
